pIC50: −log10 of the molar value. Counter-ions that a name gives are not always drawn.
Biological target: T1, MCH1R (Homo sapiens, UniProt Q99705)
T1 construct: IC50; other: cells stably expressing non-endogenous active MCH1R; 50 nM MCH; Fluo-4 calcium, FDSS6000
Assay: Calcium Evaluation Test for MCH1R (FDSS assay, MCH-induced intracellular calcium increase)
Assay type: cell-based
Conditions: cells stably expressing non-endogenous active MCH1R; 50 nM MCH; Fluo-4 calcium, FDSS6000
Excerpt: Calcium Evaluation Test for MCH1R
An FDSS assay can measure the intracellular calcium concentration and can evaluate the Gq-coupled receptor activity using the calcium concentration as an index. For example, the assay can determine whether an analyte is an antagonist, an inverse agonist or an agonist for a Gq-coupled receptor. The FDSS6000™ system (Hamamatsu Photonics K.K.) is designed to perform evaluation based on functionality such as measurement of intracellular calcium for high-throughput screening. Intracellular calcium release by activation of a Gq-coupled receptor can be fluorometrically measured by incorporating a calcium indicator (such as Fluo4) into cells. On the other hand, the assay cannot measure the activation of Gi- and Go-coupled receptors, because the activation is not associated with calcium signaling pathways.
Intracellular fluorescence can be rapidly and successively measured in a 96-well microplate or a 384-well microplate using a fluorometric imaging plate reader system. FDSS6000™ can simultaneously measure fluorescence in all wells sensitively, accurately and by seconds. This system is ideal for functional analysis in cells such as monitoring of an intracellular calcium flow generated within several seconds after activation of a Gq-coupled receptor.
On the day before the test, cells stably expressing non-endogenous active MCH1R were seeded into a 96-well microplate at 3×10^4 cells per well. 100 μL per well of a medium (Dulbecco's modified Eagle medium containing 10% fetal bovine serum, 2 mM glutamine, 1 mM sodium pyruvate and 0.5 mg/mL G418, pH=7.4) was used for culture. On the day of the test, the medium was removed and an assay buffer {Hank's balanced salt solution containing 20 mM HEPES, 0.5 mM probenecid, 0.05 mg/mL amaranth and 0.2% bovine serum albumin (BSA), pH=7.4} containing 2 μM Fluo-4-AM and 0.04% Pluronic F127 was added at 100 μL per well, followed by incubation in a 5% CO2 incubator at 37° C. for 30 minutes. An assay buffer containing each concentration of MCH was added at 50 μL per well, and transient changes in the intracellular calcium concentration induced by MCH were monitored using FDSS6000™ at Ex. 488 nm and Em. 530 nm for 180 seconds. In testing the antagonistic activity of the analyte, MCH was added to a final concentration of 50 nM. An inhibition curve was prepared with various concentrations of the analyte, and the concentration of the analyte inhibiting 50% of the increase in intracellular calcium when 50 nM MCH was added (IC50 value) was calculated using data analysis software Origin Ver. 6.

Row | pIC50 | SMILES
1 | 8.04 | O=C1CCc2ccc(CN3CCC(NC(=O)c4cccc(Cl)c4)CC3)cc2N1 [Example 7, 3-chloro-N-{1-[(2-oxo-1,2,3,4-tetrahydroquinolin-7-yl)methyl]piperidin-4-yl}benzamide]
2 | 7.72 | Cc1cccc(C(=O)NC2CCN(Cc3ccc4c(c3)NC(=O)CC4)CC2)c1 [Example 8, 3-methyl-N-{1-[(2-oxo-1,2,3,4-tetrahydroquinolin-7-yl)methyl]piperidin-4-yl}benzamide]
3 | 7.96 | O=C1CCc2ccc(CN3CCC(NC(=O)c4cccc(F)c4)CC3)cc2N1 [Example 3, 3-fluoro-N-{1-[(2-oxo-1,2,3,4-tetrahydroquinolin-7-yl)methyl]piperidin-4-yl}benzamide]
4 | 7.97 | CC(=O)c1cccc(C(=O)NC2CCN(Cc3ccc4c(c3)NC(=O)CC4)CC2)c1 [Example 32, 3-acetyl-N-{1-[(2-oxo-1,2,3,4-tetrahydroquinolin-7-yl)methyl]piperidin-4-yl}benzamide]
5 | 8.21 | COc1cccc(C(=O)NC2CCN(Cc3ccc4c(c3)NC(=O)CC4)CC2)c1 [Example 2, 3-methoxy-N-{1-[(2-oxo-1,2,3,4-tetrahydroquinolin-7-yl)methyl]piperidin-4-yl}benzamide monohydrochloride, monohydrate]

Continued, compound first:

Row | SMILES | pIC50
6 | O=C1CCc2ccc(CN3CCC(NC(=O)c4ccc(F)c(F)c4)CC3)cc2N1 [Example 5, 3,4-difluoro-N-{1-[(2-oxo-1,2,3,4-tetrahydroquinolin-7-yl)methyl]piperidin-4-yl}benzamide] | 8.82
7 | CC(c1ccc2c(c1)NC(=O)CC2)N1CCC(NC(=O)c2ccc(F)c(Cl)c2)CC1 (stereo not drawn) [Example 51, 3-chloro-4-fluoro-N-{1-[1-(2-oxo-1,2,3,4-tetrahydroquinolin-7-yl)ethyl]piperidin-4-yl}benzamide] | 8.97
8 | O=C1CCc2ccc(CN3CCC(NC(=O)c4cncc(Cl)c4)CC3)cc2N1 [Example 38, 5-chloro-N-{1-[(2-oxo-1,2,3,4-tetrahydroquinolin-7-yl)methyl]piperidin-4-yl}pyridine-3-carboxamide] | 7.73
9 | COc1cc(OC)cc(C(=O)NC2CCN(Cc3ccc4c(c3)NC(=O)CC4)CC2)c1 [Example 19, 3,5-dimethoxy-N-{1-[(2-oxo-1,2,3,4-tetrahydroquinolin-7-yl)methyl]piperidin-4-yl}benzamide] | 8.41
10 | O=C1CCc2ccc(CN3CCC(NC(=O)c4cc(F)c(F)c(F)c4)CC3)cc2N1 [Example 33, 3,4,5-trifluoro-N-{1-[(2-oxo-1,2,3,4-tetrahydroquinolin-7-yl)methyl]piperidin-4-yl}benzamide] | 8.71
11 | O=C1CCc2ccc(CN3CCC(NC(=O)C(c4ccccc4)c4ccccc4)CC3)cc2N1 [Example 27, N-{1-[(2-oxo-1,2,3,4-tetrahydroquinolin-7-yl)methyl]piperidin-4-yl}-2,2-diphenylacetamide] | 7.71
12 | COc1cccc(C(=O)NC2CCN(Cc3cc4c(cc3F)CCC(=O)N4)CC2)c1 [Example 53, N-{1-[(6-fluoro-2-oxo-1,2,3,4-tetrahydroquinolin-7-yl)methyl]piperidin-4-yl}-3-methoxybenzamide] | 7.41
13 | N#Cc1cccc(C(=O)NC2CCN(Cc3ccc4c(c3)NC(=O)CC4)CC2)c1 [Example 37, 3-cyano-N-{1-[(2-oxo-1,2,3,4-tetrahydroquinolin-7-yl)methyl]piperidin-4-yl}benzamide] | 7.74
14 | O=C1CCc2ccc(CN3CCC(NC(=O)COc4ccc(F)c(Cl)c4)CC3)cc2N1 [Example 46, 2-(3-chloro-4-fluorophenoxy)-N-{1-[(2-oxo-1,2,3,4-tetrahydroquinolin-7-yl)methyl]piperidin-4-yl}acetamide] | 8.36

Tested on: MCH1R
Assay: not given
Conditions: NON-PATENT DOCUMENT 2; cited from earlier work

Row | SMILES | effects in experimental animal models
15 | CN(C)c1nc(N[C@H]2CC[C@@H](NC(=O)c3ccc(F)c(F)c3)CC2)nc2ccccc12 [ATC0175] | antidepressive-like and anxiolytic-like effects

From US8461182B2, “7-piperidinoalkyl-3, 4-Dihydroquinolone derivative” (Taisho Pharmaceutical Co., Ltd., priority 2008, dated 2013)
